# Measurements: patent publication US8987335B2, “Substituted (E)-N′-(1-phenylethylidene)benzohydrazide analogs as histone demethylase inhibitors” (University of Utah Research Foundation, priority 2011, dated 2015)
# Experiments:
# MAO B = MAO B (Homo sapiens (Human), UniProt P27338); test: Monoamine Oxidase assay (MAO-Glo), MAO B; assay type: biochemical
# Description: (§1) Recombinant (expressed in baculovirus infected BTI insect cells) monoamine oxidase A and monoamine oxidase B (Catalog No. M7316 and M7441, respectively) were purchased from Sigma-Aldrich Co. LLC. […] MAO-Glo™ Assay Kit was purchased from Promega Corporation (Madison, Wis.).
# (§2) Briefly, 6.25 μL of test compound was added to each well of a 384-well plate. Enzyme (either MAO A or B) was added (12.5 μL in 2× buffer containing 1 μg protein) and allowed to incubate for 5 minutes. Finally, 6.25 μL of 4×MAO substrate was added to each well. Following a one hour incubation, 25 μL of Luciferin detection reagent was added to each well, and incubated for 20 minutes. Luminescence was then measured on an Envision microplate reader.
# (§3) IC50 values are determined using GraphPad Prism 5 software. The data were entered as an X-Y plot into the software as percent inhibition for each concentration of the drug. The concentration values of the drug were log transformed and the nonlinear regression was carried out using the “sigmoidal dose-response (variable slope)” option within the GraphPad software to model the data and calculate IC50 values.
# MAO A = MAO A (Homo sapiens (Human), UniProt P21397); test: Monoamine Oxidase assay (MAO-Glo), MAO A; assay type: biochemical
# Description: as §1, §2, §3
# LSD1 = LSD1 (Homo sapiens (Human), UniProt O60341); test: LSD1 Histone Demethylase Assay (LSD1 Inhibitor Screening Assay Kit); assay type: biochemical; settings: for LSD1 biochemical activity (in words): SAR discussion
# Description: Briefly, test compounds were diluted to 20× the desired test concentration in 100% DMSO and 2.5 μL of the diluted drug sample was added to a black 384-well plate. The LSD1 enzyme stock was diluted 17-fold with assay buffer and 40 μM of the diluted LSD1 enzyme was added to the appropriate wells.
# as §3
# T-47D cells = test: Cell Viability Assay (ATPlite), T-47D; assay type: cell-based; settings: Homo sapiens, T47D, 96-hours of incubation, read-out: Cell Growth, IC50
# Description: Cells were cultured according to the procedures provided. […] Cells were cultured at 37° C. and 5% CO2.
# as §3
# MDA-MB-235 = test: Cell Viability Assay (ATPlite), MDA-MB-235; assay type: cell-based; settings: 96-hours of incubation, read-out: Cell Growth, IC50
# Description: Cancer cell lines were obtained from ATCC. Cells were cultured according to the procedures provided. In addition to the supplements indicated in Table 4, media were also supplemented with 1% penicillin/streptomycin (100 IU/mL penicillin and 100 μg/mL streptomycin). Cells were cultured at 37° C. and 5% CO2. ATCC is the American Type Culture Collection (Manassas, Va.).
# Cell viability was determined using ATPlite™ Luminescence Assay System (PerkinElmer Inc., Waltham, Mass.) using the various cell-lines described above and in Table 4. Briefly, cells were seeded in 96-well plates and then treated with different concentrations of inhibitor (0.1% final DMSO concentration). After 96-hours of incubation, ATPlite detection reagent was added directly to the culture well. Luminescence was read 5 minutes later on an Envision microplate reader.
# Chain of MAO A (P21397 whole entry): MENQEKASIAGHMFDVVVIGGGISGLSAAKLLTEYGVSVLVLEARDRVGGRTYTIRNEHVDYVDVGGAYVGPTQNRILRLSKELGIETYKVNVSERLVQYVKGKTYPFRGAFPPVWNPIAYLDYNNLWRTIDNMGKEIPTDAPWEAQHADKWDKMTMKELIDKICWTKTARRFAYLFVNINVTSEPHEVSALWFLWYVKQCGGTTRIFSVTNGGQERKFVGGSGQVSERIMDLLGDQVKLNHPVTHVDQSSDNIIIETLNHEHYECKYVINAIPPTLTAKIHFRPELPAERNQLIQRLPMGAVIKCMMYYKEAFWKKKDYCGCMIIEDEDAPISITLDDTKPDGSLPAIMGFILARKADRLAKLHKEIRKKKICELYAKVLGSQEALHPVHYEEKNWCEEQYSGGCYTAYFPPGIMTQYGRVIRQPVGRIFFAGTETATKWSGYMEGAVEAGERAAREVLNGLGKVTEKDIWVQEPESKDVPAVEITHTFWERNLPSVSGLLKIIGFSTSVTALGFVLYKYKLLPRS
# Chain of MAO B (P27338 whole entry): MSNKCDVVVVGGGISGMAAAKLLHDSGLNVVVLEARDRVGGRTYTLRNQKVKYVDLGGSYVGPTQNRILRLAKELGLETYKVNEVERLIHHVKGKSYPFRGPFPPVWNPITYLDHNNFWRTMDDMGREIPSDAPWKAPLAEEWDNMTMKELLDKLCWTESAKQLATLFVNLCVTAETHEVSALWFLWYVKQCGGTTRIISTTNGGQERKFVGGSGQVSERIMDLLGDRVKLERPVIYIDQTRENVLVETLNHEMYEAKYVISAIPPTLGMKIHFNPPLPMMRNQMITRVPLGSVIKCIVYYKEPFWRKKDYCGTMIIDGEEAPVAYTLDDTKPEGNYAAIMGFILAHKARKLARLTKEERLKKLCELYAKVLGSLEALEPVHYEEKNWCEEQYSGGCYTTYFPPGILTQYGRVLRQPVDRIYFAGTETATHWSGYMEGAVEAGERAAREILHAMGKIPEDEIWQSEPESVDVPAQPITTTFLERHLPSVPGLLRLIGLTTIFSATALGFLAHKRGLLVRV
SMILES,LSD1 biochemical activity (in words) (LSD1),IC50 (T-47D cells),further results
O=C(N/N=C/c1ccccc1O)c1ccc(O)cc1 [Compound 1],,,activity against MAO B (in words) (MAO B): comparable activity to tranylcypromine; activity against MAO A (in words) (MAO A): no activity
COc1ccc(Cl)cc1C(=O)NNC(=O)c1cc(S(=O)(=O)N2CCOCC2)ccc1F [Compound 6],lack of biochemical activity,> 10000 nM,
O=C(NNC(=O)c1cc(S(=O)(=O)N2CCOCC2)ccc1F)c1cccc(Cl)c1 [Compound 7],,> 10000 nM,
CCN(CC)S(=O)(=O)c1ccc(F)c(C(=O)NNC(=O)c2ccc(C)cc2)c1 [Compound 8],lower activity,> 10000 nM,
C/C(=N\NC(=O)c1cccc(S(=O)(=O)N2CCOCC2)c1)c1cccc2ccccc12 [Compound 10],lower activity,> 10000 nM,IC50 (LSD1): > 10000 nM
"C/C(=N\NC(=O)c1cccc(S(=O)(=O)N2CCOCC2)c1)c1cc(Cl)ccc1O [Compound 12, (E)-N′-(1-(5-chloro-2-hydroxyphenyl)ethylidene)-3-(morpholinosulfonyl)benzohydrazide]",,,IC50 (MAO B): > 300000 nM; IC50 (MDA-MB-235): 728 nM; IC50 (MAO A): > 300000 nM
"C/C(=N\NC(=O)c1cccc(S(=O)(=O)N2CCOCC2)c1)c1ccnc(Cl)c1 [Compound 15, (E)-N′-(1-(2-chloropyridin-4-yl)ethylidene)-3-(morpholinosulfonyl)benzohydrazide]",drop in biochemical activity,> 10000 nM,
"C/C(=N\NC(=O)c1cccc(S(=O)(=O)N2CCOCC2)c1)c1cc(Cl)ccc1Cl [Compound 16, (E)-N′-(1-(2,5-dichlorophenyl)ethylidene)-3-(morpholinosulfonyl)benzohydrazide]",significant drop in activity,> 10000 nM,LSD1 biochemical activity (in words) (LSD1; listed as compound 16): activity was decreased
"C/C(=N\NC(=O)c1ccc(Cl)c(Br)c1)c1cc(Cl)ccc1O [Compound 17, (E)-3-bromo-4-chloro-N′-(1-(5-chloro-2-hydroxyphenyl)ethylidene)benzohydrazide]",drop in biochemical activity,1700 nM,
"C/C(=N\NC(=O)c1cnc(Cl)c(Br)c1)c1cc(Cl)ccc1O [Compound 19, (E)-5-bromo-6-chloro-N′-(1-(5-chloro-2-hydroxyphenyl)ethylidene)nicotinohydrazide]",drop in biochemical activity,1380 nM,
"C/C(=N\NC(=O)c1cncc(Cl)c1)c1cc(Cl)ccc1O [Compound 20, (E)-5-chloro-N′-(1-(5-chloro-2-hydroxyphenyl)ethylidene)nicotinohydrazide]",drop in biochemical activity,270 nM,
"CC/C(=N\NC(=O)c1cccc(S(=O)(=O)N2CCOCC2)c1)c1cc(Cl)ccc1O [Compound 21, (E)-N′-(1-(5-chloro-2-hydroxyphenyl)propylidene)-3-(morpholinosulfonyl)benzohydrazide]",,616 nM,
"C/C(=N\NC(=O)c1cccc(S(=O)(=O)N2CCOCC2)c1)c1cccnc1 [Compound 22, (E)-3-(morpholinosulfonyl)-N′-(1-(pyridin-3-yl)ethylidene)benzohydrazide]",drop in biochemical activity,,
"C/C(=N\NC(=O)c1cncc(S(C)(=O)=O)c1)c1cc(Cl)ccc1O [Compound 24, (E)-N′-(1-(5-chloro-2-hydroxyphenyl)ethylidene)-5-(methylsulfonyl)nicotinohydrazide]",,,activity against MAO B (in words) (MAO B): no activity; activity against MAO A (in words) (MAO A): no activity
"N[C@@H]1CC1c1ccccc1 (stereo partly drawn) [tranylcypromine, reference compound]",,,activity against MAO B (in words) (MAO B): exhibited activity; activity against MAO A (in words) (MAO A): exhibited activity
